Assay results reported in ChEMBL document CHEMBL6096684, “Targeting IspD for Anti-infective and Herbicide Development: Exploring Its Role, Mechanism, and Structural Insights” (J Med Chem, 2025).

test: Inhibition of Plasmodium falciparum IspD

IC50	Structure (SMILES)
0.073 µM	O=c1c2ccccc2sn1-c1cccc(-c2ccc(Cl)cc2)c1
271 µM	Cc1ccc(C)n1-c1ccc([N+](=O)[O-])cc1C(=O)O
0.45 µM	Cc1ccc(-n2sc3ccccc3c2=O)cc1S(=O)(=O)N1CCOCC1

test: Inhibition of Plasmodium falciparum 3D7 IspD

IC50	Structure (SMILES)
1.1 µM	O=c1c2ccccc2sn1-c1cccc(-c2ccc(Cl)cc2)c1
4.3 µM	Cc1ccc(-n2sc3ccccc3c2=O)cc1S(=O)(=O)N1CCOCC1

test: Inhibition of wild type Plasmodium falciparum IspD extracted from Escherichia coli BL21 (DE3)

IC50	Structure (SMILES)
0.047 µM	O=C(O)[C@H]1Cc2c([nH]c3ccccc23)[C@H](c2ccc(Cl)cc2Cl)N1
0.17 µM	O=C(O)[C@H]1Cc2c([nH]c3ccccc23)[C@@H](c2ccc(Cl)cc2Cl)N1
0.25 µM	O=C(O)[C@@H]1Cc2c([nH]c3ccccc23)[C@@H](c2ccc(Cl)cc2Cl)N1

test: Inhibition of Arabidopsis thaliana IspD

Structure (SMILES)	IC50
CC(C)CCn1c(N)c(-c2nc3ccccc3[nH]2)c2nc3ccccc3nc21	1.6 µM
CCN(CC)CCCC(C)n1c(N)c(-c2nc3ccccc3[nH]2)c2nc(C#N)c(C#N)nc21 (configuration not stated)	50 µM
COc1ccc2nc(NC(=O)COc3ccc(-c4ccccc4)cc3)sc2c1	6.3 µM

More lines, now with the values ahead:

IC50	Structure (SMILES)
35 µM	N#Cc1cnn2c(O)c(Cc3ccccc3)c(Cl)nc12
418 µM	Oc1ccc(Br)cc1-c1cc(C(F)(F)F)no1
274 µM	O=C(O)c1cnn2c(O)c(Cc3ccccc3)c(Cl)nc12
9.3 µM	Oc1c(Br)cc(Br)cc1-c1cc(C(F)(F)F)no1
121 µM	Oc1c(Br)cc(Br)cc1-c1ccno1
1.8 µM	COc1ccc2nc(NC(=O)c3cc(-c4ccccc4O)n[nH]3)sc2c1
> 500 µM	Oc1ccc(Br)cc1-c1ccno1

test: Inhibition of Plasmodium vivax IspD

Structure (SMILES)	IC50
O=c1c2ccccc2sn1-c1cccc(-c2ccc(Cl)cc2)c1	0.057 µM
Oc1c(Cl)cc(Cl)cc1-c1[nH]c(Br)c(Br)c1Br [TRIBROMODICHLOROPSEUDILIN]	56 µM
Cc1ccc(-n2sc3ccccc3c2=O)cc1S(=O)(=O)N1CCOCC1	0.045 µM
Oc1c(Br)cc(Br)cc1-c1[nH]c(Br)c(Br)c1Br [PENTABROMOPSEUDILIN]	48 µM
